Paper PMC7582905, “Effect of Disulfide Cyclization of Ultrashort Cationic Lipopeptides on Antimicrobial Activity and Cytotoxicity” (International Journal of Molecular Sciences, 2020)
Like-named read-outs stand apart in the source and are kept apart here. Where a SMILES comes first, the peptide text is derived from it. Bridges are numbered along the chain shown (N, C = ends). The star is where a group is joined. Palmitoyl = CCCCCCCCCCCCCCCC(=O)*

Assays:
[1] = test system: Pseudomonas aeruginosa ATCC 9027; format: cell-based
Procedure: (§1) The Staphylococcus aureus ATCC 25923, Staphylococcus epidermidis ATCC 14990, Escherichia coli ATCC 25922, Pseudomonas aeruginosa ATCC 9027, Candida albicans ATCC 10231, Candida glabrata ATCC 15126, Candida lipolytica PCM 2680-FY, and Candida tropicalis PCM 2709-FY strains were acquired from the Polish Collection of Microorganisms (PCM, Polish Academy of Sciences, Wrocław, Poland) and from the American Type Culture Collection (ATCC). All the strains were stored at −80 °C in Roti-Store cryo vials and before the tests were transferred into fresh Mueller–Hinton broth (MHB, Biocorp, Warsaw, Poland) for bacteria or RPMI-1640 (Sigma-Aldrich, Steinheim, Germany) for fungi and incubated for 24 h at 37 °C. Then, the cultures were seeded on Mueller–Hinton agar (BioMaxima, Lublin, Poland) or Sabouraud dextrose agar (SDA, BioMaxima, Lublin, Poland) plates, respectively, and incubated as just mentioned. These agar cultures were used for further microbiological assays. Cell densities for all assays were adjusted spectrophotometrically (Multiskan GO Microplate Spectrophotometer, Thermo Fisher Scientific, Vantaa, Finland) at 600 and 660 nm for bacteria and fungi, respectively.
(§2) The assay was performed to evaluate the effect of the lipopeptides in preventing biofilm formation. The preparation of inoculums was followed by a ca. 500-fold dilution of the 24 h cultures of microorganisms. Briefly, 50 μL of the compounds in the concentration range, diluted in appropriate medium, were prepared on 96-well polystyrene flat-bottom plates. Subsequently, the 50 μL of the bacterial/fungal inoculums were added to reach the same microbial density as that in the MBEC assay. After 24 h of incubation at 37 °C, the wells were rinsed three times with PBS and the fresh media with resazurin (4 g/L) were added. The MBICs were read after 1 h. All experiments were conducted in triplicate.

[2] = test system: Candida lipolytica PCM 2680-FY; format: cell-based
Procedure: as §1, §2

[3] = test system: Candida albicans ATCC 10231; format: cell-based
Procedure: as §1, §2

[4] = test system: Escherichia coli ATCC 25922; format: cell-based
Procedure: as §1, §2

[5] = test system: Staphylococcus aureus ATCC 25923; format: cell-based
Procedure: as §1, §2

[6] = test system: Staphylococcus epidermidis ATCC 14990; format: cell-based
Procedure: as §1, §2

[7] = test system: Candida tropicalis PCM 2709-FY; format: cell-based
Procedure: as §1, §2

[8] = test system: Candida glabrata ATCC 15126; format: cell-based
Procedure: as §1, §2

[9] = RP-HPLC determination of peptide hydrophobicity; format: physicochemical; conditions: 0.1% TFA; for reduced retention time t’R: RP-HPLC retention as measure of hydrophobicity, Waters X-Bridge Shield RP-18 3.0 × 100 mm, 3.5 μm, linear 20–65% acetonitrile in water over 30 min, 0.5 mL/min, 25.0 °C, UV 214 nm, 1 g/L, triplicate; for ∆tR: tR of cyclic analog − tR of parent lipopeptide, RP-HPLC, RP-18, 20–65% acetonitrile over 30 min
Procedure: The peptides were analyzed by RP-HPLC to determine relative hydrophobicity vs. retention time of each compound. In general, more hydrophobic lipopeptides will elute later than hydrophilic ones. Using this simple rule enables comparison of hydrophobicity by reduced retention times (t’R) and differences in retention time between the cyclic analog and its linear parent lipopeptide (Table 1). It can be deduced that the presence of cystine moiety has led to increased hydrophobicity. All cyclic lipopeptides are more hydrophobic than their linear counterparts but the effect of disulfide cyclization on retention is different in each pair. The highest increase in retention was noticed for the shortest lipopeptides L1 (C16-KKK-NH2) and C1 (C16-CKKKC-NH2). The differences between lipopeptides with one arginine residue indicate that its position is crucial for retention and therefore hydrophobicity. To learn how the arginine position affects hydrophobicity, the retention time of compound L2 (C16-KKKK-NH2) or C2 (C16-CKKKKC-NH2) was subtracted from that of the lipopeptides with one arginine residue, linear (L3, L4, L5, L6) or cyclic (C3, C4, C5, C6), respectively. In Figure 2 the effect of arginine position on retention time is related to unsubstituted lipopeptide.
To determine peptide hydrophobicity, a Waters Alliance e2695 system with a Waters 2998 PDA Detector (software-Empower 3, Waters, Milford, MA, USA) was used. All analyses were carried out on a Waters X-Bridge Shield RP-18 column (3.0 × 100 mm, 3.5 μm particle size, 130 Å pore size). The Shield Technology column with embedded polar groups was used to minimize interactions of unreacted silanol groups with basic lipopeptides. The peptides were dissolved in water (0.1% TFA, v/v) up to a concentration of 1 g/L. UV detection at 214 nm was used, and samples (10 μL) were eluted with a linear 20–65% acetonitrile gradient in deionized water over 30 min at 25.0 ± 0.1 °C. The mobile phase flow rate was 0.5 mL/min. Both eluents contained 0.1% (v/v) of TFA. Each peptide sample was analyzed in triplicate. Maximum standard deviation and coefficient of variation were 0.042 and 0.25%, respectively.

[10] = test system: human red blood cells (hRBCs); experiment: Hemolysis assay; format: cell-based; conditions: peptide concentration causing 50% hemolysis; 4% (v/v) hRBCs in PBS, 1 h, 37 °C, absorbance 540 nm, triplicate
Procedure: The hemolysis assay was performed by using the method reported previously. Fresh human red blood cells (hRBCs) with anticoagulant (EDTA) were rinsed three times with a PBS by centrifugation at 800× g for 10 min and diluted with PBS. The lipopeptides were serially diluted on a 96-well microtiter polystyrene plate and hRBCs were added up to a final volume of 100 μL. The peptide concentration ranged between 0.5 and 256 μg/mL and the final hRBCs concentration was 4% (v/v). Controls for zero hemolysis (blank) and 100% hemolysis consisted of hRBCs suspended in PBS and 1% of Triton-X 100, respectively. The plate was incubated for 1 h at 37 °C and then centrifuged (800× g, 10 min, 4 °C). Subsequently, the supernatant was […] to new microtiter plates and the absorbance at 540 nm was measured. All experiments were conducted in triplicate. HC50 was calculated using an ic50.tk tool. Protocol of the study received approval from the local Bioethics Committee at the Medical University of Gdańsk (NKBBN/262/2019, approval date: 10 June 2019).

[11] = test system: Staphylococcus aureus ATCC 25923; conditions: values marked *: performed by the group in the previous study; ref [29]; cited from earlier work
Excerpt: Table 2 Antimicrobial activity of lipopeptides. | column: MIC (μg/mL) / S. aureus

[12] = prevention of biofilm formation on polystyrene plates, 24 h at 37 °C, resazurin, triplicate

| Structure (SMILES) | MBIC P. aeruginosa ([1]; ATCC 9027, 24 h) | MBIC C. lipolytica ([2]; 24 h) | MBIC C. albicans ([3]; ATCC 10231, 24 h) | MBIC E. coli ([4]; ATCC 25922, 24 h) | MBIC S. aureus ([5]; ATCC 25923, 24 h) | MBIC S. epidermidis ([6]; ATCC 14990, 24 h) | MBIC C. tropicalis ([7]; PCM 2709-FY, 24 h) | MBIC C. glabrata ([8]; ATCC 15126, 24 h) | reduced retention time t’R [9] | HC50 [10] | MIC S. aureus [11] | MBIC P. aeruginosa [1, 12] | MBIC C. lipolytica [2, 12] | MBIC C. albicans [3, 12] | MBIC E. coli [4, 12] | MBIC S. aureus [5, 12] | MBIC S. epidermidis [6, 12] | MBIC C. tropicalis [7, 12] | MBIC C. glabrata [8, 12] | ∆tR [9] |
| --- | --- | --- | --- | --- | --- | --- | --- | --- | --- | --- | --- | --- | --- | --- | --- | --- | --- | --- | --- | --- |
| CCCCCCCCCCCCCCCC(=O)N[C@@H](CCCNC(=N)N)C(=O)N[C@@H](CCCNC(=N)N)C(=O)N[C@@H](CCCCN)C(=O)N[C@@H](CCCCN)C(N)=O [L7, C16-RRKK-NH2] (Palmitoyl-RRKK-NH2) | 64 µg/mL | 16 µg/mL | 32 µg/mL | 32 µg/mL | 16 µg/mL | 16 µg/mL | 8 µg/mL | 32 µg/mL | 15.58 min | 65.4 ± 1.5 µg/mL |  |  |  |  |  |  |  |  |  |  |
| CCCCCCCCCCCCCCCC(=O)N[C@@H](CCCCN)C(=O)N[C@@H](CCCCN)C(=O)N[C@@H](CCCCN)C(N)=O [L1, C16-KKK-NH2] | 32 µg/mL | 32 µg/mL | 128 µg/mL | 32 µg/mL | 32 µg/mL | 16 µg/mL | 16 µg/mL | 128 µg/mL | 16.14 min | 90.0 ± 6.5 µg/mL | 32 * μg/mL |  |  |  |  |  |  |  |  |  |
| CCCCCCCCCCCCCCCC(=O)N[C@@H](CCCCN)C(=O)N[C@@H](CCCCN)C(=O)N[C@@H](CCCNC(=N)N)C(=O)N[C@@H](CCCCN)C(N)=O [L5, C16-KKRK-NH2] (Palmitoyl-KKRK-NH2) | 64 µg/mL | 32 µg/mL | 64 µg/mL | 32 µg/mL | 32 µg/mL | 16 µg/mL | 16 µg/mL | 128 µg/mL | 15.01 min | 96.7 ± 1.4 µg/mL | 16 * μg/mL |  |  |  |  |  |  |  |  |  |
| CCCCCCCCCCCCCCCC(=O)N[C@H]1CSSC[C@@H](C(N)=O)NC(=O)[C@H](CCCCN)NC(=O)[C@H](CCCCN)NC(=O)[C@H](CCCCN)NC(=O)[C@H](CCCCN)NC1=O [C2, C16-CKKKKC-NH2] (Palmitoyl-CKKKKC-NH2; disulfide 1-6) |  |  |  |  |  |  |  |  | 15.95 min | 30.6 ± 1.1 µg/mL |  | 64 µg/mL | 8 µg/mL | 16 µg/mL | 32 µg/mL | 16 µg/mL | 4 µg/mL | 8 µg/mL | 32 µg/mL | +1.18 min |
| CCCCCCCCCCCCCCCC(=O)N[C@H]1CSSC[C@@H](C(N)=O)NC(=O)[C@H](CCCCN)NC(=O)[C@H](CCCCN)NC(=O)[C@H](CCCNC(=N)N)NC(=O)[C@H](CCCCN)NC1=O [C4, C16-CKRKKC-NH2] (Palmitoyl-CKRKKC-NH2; disulfide 1-6) | 32 µg/mL | 4 µg/mL | 8 µg/mL | 32 µg/mL | 16 µg/mL | 8 µg/mL | 4 µg/mL | 16 µg/mL | 16.10 min | 122.4 ± 16.5 µg/mL |  |  |  |  |  |  |  |  |  | +0.92 min |
| CCCCCCCCCCCCCCCC(=O)N[C@@H](CCCCN)C(=O)N[C@@H](CCCCN)C(=O)N[C@@H](CCCCN)C(=O)N[C@@H](CCCCN)C(N)=O [L2, C16-KKKK-NH2] (Palmitoyl-KKKK-NH2) | 64 µg/mL | 32 µg/mL | 128 µg/mL | 32 µg/mL | 32 µg/mL | 16 µg/mL | 16 µg/mL | 128 µg/mL | 14.77 min | 105.9 ± 8.0 µg/mL |  |  |  |  |  |  |  |  |  |  |
| CCCCCCCCCCCCCCCC(=O)N[C@@H](CCCCN)C(=O)N[C@@H](CCCNC(=N)N)C(=O)N[C@@H](CCCCN)C(=O)N[C@@H](CCCCN)C(N)=O [L4, C16-KRKK-NH2] (Palmitoyl-KRKK-NH2) | 32 µg/mL | 16 µg/mL | 32 µg/mL | 32 µg/mL | 16 µg/mL | 8 µg/mL | 8 µg/mL | 64 µg/mL | 15.18 min | 79.8 ± 9.0 µg/mL |  |  |  |  |  |  |  |  |  |  |
| CCCCCCCCCCCCCCCC(=O)N[C@H]1CSSC[C@@H](C(N)=O)NC(=O)[C@H](CCCCN)NC(=O)[C@H](CCCCN)NC(=O)[C@H](CCCNC(=N)N)NC(=O)[C@H](CCCNC(=N)N)NC1=O [C7, C16-CRRKKC-NH2] (Palmitoyl-CRRKKC-NH2; disulfide 1-6) | 128 µg/mL | 8 µg/mL | 16 µg/mL | 128 µg/mL | 16 µg/mL | 16 µg/mL | 8 µg/mL | 16 µg/mL | 16.83 min | 92.0 ± 9.6 µg/mL |  |  |  |  |  |  |  |  |  | +1.25 min |
